Data set [1] has as its system caspase-3 activation in B50 cells. Kind of data set: Nitroprusside-induced caspase-3 activation in B50 cells (marker of CyP-A activity). The class given is cell-based, rat. The following applies: 100 μM nitroprusside 40 min, assayed after 5 hr, Compound 1 at 2.5 μM.
The subject of data set [2] is rat hippocampal neurons. As to the kind of experiment: Oxygen and glucose deprivation (pseudo ischaemia/reperfusion) induced necrosis of hippocampal neurons. The class given is cell-based. The following applies: for protection against neuron mortality (necrosis) following OGD: within 90 min, about 60% of neurons necrotic without compound.
Data set [3] has as its system CyP-D(+) B50 cells. As to the kind of experiment: TMRE uptake (inner membrane potential) in B50 cells and CyP-D overexpressing clone. The class given is cell-based, rat.
Data set [4] relates to intramitochondrial CyP-D rather than extramitochondrial CyP-A. The following applies: for mitochondrial matrix/extramitochondrial accumulation ratio: isolated rat liver mitochondria plus recombinant CyP-A, 25° C.
Data set [5] relates to Permeability Transition (PT) pore. As to the kind of experiment: Ca2+-induced PT pore opening (swelling, absorbance at 540 nm) in isolated mitochondria. As to conditions: read-out: concentration giving 50% inhibition of PT pore opening; isolated rat liver mitochondria, 50 μM Ca2+ infused slowly. The class given is biochemical.
For data set [6], the system named is rat heart cells (ventricular cardiomyocytes). Kind of data set: Oxygen and glucose deprivation / reoxygenation induced necrosis of heart cells. The class given is cell-based.
Data set [7] has as its target cyclophilin D (CyP-D) (Rattus norvegicus, UniProt P29117). As to the kind of experiment: PPIase assay, inhibition of recombinant CyP-D by cyclosporins.

Sequence of cyclophilin D (CyP-D) (P29117 30-206): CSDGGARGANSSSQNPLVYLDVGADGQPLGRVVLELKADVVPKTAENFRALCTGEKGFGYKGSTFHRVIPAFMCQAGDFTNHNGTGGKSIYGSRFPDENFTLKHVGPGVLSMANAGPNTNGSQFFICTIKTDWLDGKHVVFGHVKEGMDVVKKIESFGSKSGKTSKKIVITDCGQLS

On to `C/C=C/C[C@@H](C)[C@@H](O)[C@H]1C(=O)N[C@@H](CC)C(=O)N(C)C(Cc2ccc(C(=O)NCCCCCCNC(=O)CCCCC[P+](c3ccccc3)(c3ccccc3)c3ccccc3)cc2)C(=O)N(C)[C@@H](CC(C)C)C(=O)N[C@@H](C(C)C)C(=O)N(C)[C@@H](CC(C)C)C(=O)N[C@@H](C)C(=O)N[C@H](C)C(=O)N(C)[C@@H](CC(C)C)C(=O)N(C)[C@@H](CC(C)C)C(=O)N(C)[C@@H](C(C)C)C(=O)N1C` (stereo partly drawn) [Compound 1, (6-(6-(4-(((5S,8S,11S,14S,17R,20S,23S,26S,29S,32S)-32-ethyl-29-((1R,2R,E)-1-hydroxy-2-methylhex-4-enyl)-5,11,20,23-tetraisobutyl-8,26-diisopropyl-1,4,10,14,17,19,22,25,28-nonamethyl-3,6,9,12,15,18,21,24,27,30,33-undecaoxo-1,4,7,10,13,16,19,22,25,28,31-undecaazacyclotritriacontan-2-yl)methyl)benzamido)hexylamino)-6-oxohexyl)triphenylphosphonium], for which, in data set [1], the “effect on nitroprusside-induced activation of caspase-3” value is recorded as “no significant effect”. Also, in data set [2] (30 min OGD), the “protection against neuron mortality (necrosis) following OGD” value is reported as “approximately halved”. In data set [2] (hippocampal neurons, 30 min OGD), the “concentration giving maximal protection against OGD-induced necrosis” value was greater than 0.8 µM. Also, in data set [3] (B50 clone overexpressing CyP-D about 10-fold, 50 nM TMRE), the “concentration for maximal restoration of TMRE uptake by CyP-D(+) cells” value is roughly 2400 nM. In addition, the “effect on TMRE uptake by wild type cells” value in data set [3] (wild type B50 cells, 0.8 μM CsA, 2.4 μM Compound 1) was “did not affect”. Moreover, the “inhibition of PT pore formation compared with inhibition of extramitochondrial CyP-A” value in data set [4] (same incubation, CyP-A activity in supernatant) is “considerably better”. Also, in data set [5], the IC50 was roughly 400 nM.
In general, Ki refers to the dissociation constant of the complex between target and ligand, obtained from inhibition or displacement. Turning to `CC[C@@H]1NC(=O)[C@H]([C@H](O)[C@H](C)C/C=C/C(=O)NCCOCCNC(=O)CC[P+](c2ccccc2)(c2ccccc2)c2ccccc2)N(C)C(=O)[C@H](C(C)C)N(C)C(=O)[C@H](CC(C)C)N(C)C(=O)[C@H](CC(C)C)N(C)C(=O)[C@@H](C)NC(=O)[C@H](C)NC(=O)[C@H](CC(C)C)N(C)C(=O)[C@H](C(C)C)NC(=O)[C@H](CC(C)C)N(C)C(=O)CN(C)C1=O` [Compound 2, (16R,17R,E)-17-((2S,5S,11S,14S,17S,20S,23R,26S,29S,32S)-5-ethyl-11,17,26,29-tetraisobutyl-14,32-diisopropyl-1,7,10,16,20,23,25,28,31-nonamethyl-3,6,9,12,15,18,21,24,27,30,33-undecaoxo-1,4,7,10,13,16,19,22,25,28,31-undecaazacyclotritriacontan-2-yl)-17-hydroxy-16-methyl-4,12-dioxo-1,1,1-triphenyl-8-oxa-5,11-diaza-1-phosphoniaheptadec-13-ene], the necrosis during reoxygenation result in data set [6] (5 hours reoxygenation, in particular first 3 hours) is “inhibited”. Also, the “necrosis induced by OGD for 4 hours” value in data set [6] (before reoxygenation, with or without compound) is given as “negligible necrosis”. Besides, the “cytoprotection at 15 nM” value in data set [6] (necrosis after 3 hours of reoxygenation, 15 nM) is “complete protection”. The Ki in data set [7] is 30 nM. Besides, the “mitochondrial matrix/extramitochondrial accumulation ratio” value in data set [4] was greater than 10.
For the compound `C/C=C/C[C@@H](C)[C@@H](O)[C@H]1C(=O)N[C@@H](CC)C(=O)N(C)C(Cc2ccc(C(=O)NCCOCCNC(=O)CC[P+](c3ccccc3)(c3ccccc3)c3ccccc3)cc2)C(=O)N(C)[C@@H](CC(C)C)C(=O)N[C@@H](C(C)C)C(=O)N(C)[C@@H](CC(C)C)C(=O)N[C@@H](C)C(=O)N[C@H](C)C(=O)N(C)[C@@H](CC(C)C)C(=O)N(C)[C@@H](CC(C)C)C(=O)N(C)[C@@H](C(C)C)C(=O)N1C` (stereo partly drawn) [Compound 3, 12-(4-(((5S,8S,11S,14S,17R,20S,23S,26S,29S,32S)-32-ethyl-29-((1R,2R,E)-1-hydroxy-2-methylhex-4-enyl)-5,11,20,23-tetraisobutyl-8,26-diisopropyl-1,4,10,14,17,19,22,25,28-nonamethyl-3,6,9,12,15,18,21,24,27,30,33-undecaoxo-1,4,7,10,13,16,19,22,25,28,31-undecaazacyclotritriacontan-2-yl)methyl)phenyl)-4,12-dioxo-1,1,1-triphenyl-8-oxa-5,11-diaza-1-phosphoniadodecane], the Ki in data set [7] came to 6 nM. For the same compound, the “mitochondrial matrix/extramitochondrial accumulation ratio” value in data set [4] was greater than 10.
For `C/C=C/C[C@@H](C)[C@@H](O)[C@H]1C(=O)N[C@@H](CC)C(=O)N(C)C(Cc2ccc(C(=O)NCCCCCCNC(=O)c3ccc(-c4c5ccc(=[N+](C)C)cc-5oc5cc(N(C)C)ccc45)cc3)cc2)C(=O)N(C)[C@@H](CC(C)C)C(=O)N[C@@H](C(C)C)C(=O)N(C)[C@@H](CC(C)C)C(=O)N[C@@H](C)C(=O)N[C@H](C)C(=O)N(C)[C@@H](CC(C)C)C(=O)N(C)[C@@H](CC(C)C)C(=O)N(C)[C@@H](C(C)C)C(=O)N1C` (some centres unmarked) [Compound 4], in data set [7], the inhibitory constant (Ki) stood at 120 nM. In data set [4], the “mitochondrial matrix/extramitochondrial accumulation ratio” value was 4.2.
In data set [6] (necrosis after 3 hours of reoxygenation), `C/C=C/C[C@@H](C)[C@@H](O)[C@H]1C(=O)N[C@@H](CC)C(=O)N(C)CC(=O)N(C)[C@@H](CC(C)C)C(=O)N[C@@H](C(C)C)C(=O)N(C)[C@@H](CC(C)C)C(=O)N[C@@H](C)C(=O)N[C@H](C)C(=O)N(C)[C@@H](CC(C)C)C(=O)N(C)[C@@H](CC(C)C)C(=O)N(C)[C@@H](C(C)C)C(=O)N1C` [CsA, Cyclosporin A] registered a maximal protection of 42%. For the same compound, the “protection against neuron mortality (necrosis) following OGD” value in data set [2] (30 min OGD) is “less protective”. The “protection against OGD-induced necrosis at 0.1 μM” value in data set [2] (hippocampal neurons, 0.1 μM) is “relatively small protection”. The “protection against OGD-induced necrosis at higher concentrations” value in data set [2] (hippocampal neurons, above 0.1 μM) is “reversed”.
